We go through four compounds from USRE47404E1, “Viral hepatitis treatment” (priority 2006, dated 2019).

Where two headings read alike, the source gives them in different places.

The nature of series [1]: Cytotoxicity, neutral red dye uptake, AVA5. The following applies: human. In kind it is cell-based.
Description: (§6) Briefly, replicon cell lines were maintained as sub-confluent cultures on 96-well plates. Compounds were added daily for three days in fresh medium. Twenty-four hours after the last dose of compound, antiviral activity was determined by blot hybridization analysis of intracellular HCV RNA, and cytotoxicity was assessed by neutral red dye uptake. EC50, EC90, CC50 and selectivity index were calculated for each compound tested in a replicon cell line. EC50=drug concentration producing a 50% reduction of intracellular HCV RNA relative to the average levels in untreated cultures. EC90=drug concentration producing a 90% reduction of intracellular HCV RNA relative to the average levels in untreated cultures. CC50=drug concentration producing a 50% reduction of neutral red dye uptake relative to the average levels in untreated cultures. Selectivity index=CC50 divided by EC50. EC50, EC90 and CC50 values (±standard deviations [S.D.]) were calculated by linear regression analysis using data combined from all treated cultures.
Series [2] has as its system HCV replication in RP7 replicon cell line (subgenomic construct of genotype 1b). Briefly: microbe, parasite or virus in culture. In kind it is cell-based, hepatitis C virus. The protocol: (§1) Antiviral activity of nitazoxanide, tizoxanide, interferon α, ribavirin and 2′-C-methyl cytidine was assessed in five different HCV replicon cell lines: (1) AVA5, a subgenomic construct of genotype 1b (Blight et al., 2000, Science 290:1972-1974); (2) H/FL-Neo, a genotype 1a full length construct (Blight et al., 2003, Journal of Virology 77:3181-3190); (3) JWT, a subgenomic construct of genotype 1b (Pfeiffer and Kirkegaard, 2005, Journal of Virology, 79:2346-2355); (4) 4-3-10, a subgenomic construct of genotype 1b, developed by a protocol that involved serial passage of JWT cells in 100 μM for one month followed by 400 μM ribavirin for two weeks (Pfeiffer and Kirkegaard, 2005, Journal of Virology, 79:2346-2355); and (5) RP7, a subgenomic construct of genotype 1b (Elazar et al., 2003, Journal of Virology 77:6055-6061).
(§2) Antiviral activity for each test compound was determined as previously described (Okuse et al., 2005, Antiviral Research 65:23-34). Briefly, replicon cell lines were maintained as sub-confluent cultures on 96-well plates. Compounds were added daily for three days in fresh medium. Twenty-four hours after the last dose of compound, antiviral activity was determined by blot hybridization analysis of intracellular HCV RNA, and cytotoxicity was assessed by neutral red dye uptake. EC50, EC90, CC50 and selectivity index were calculated for each compound tested in a replicon cell line. […] Selectivity index=CC50 divided by EC50. EC50, EC90 and CC50 values (±standard deviations [S.D.]) were calculated by linear regression analysis using data combined from all treated cultures.
(§3) Nitazoxanide and tizoxanide were provided by Romark Laboratories, L.C. (Tampa, Fla. USA). […] Ribavirin was purchased from Sigma-Aldrich (St. Louis, Mo. USA). 2′-C-methyl cytidine (Pierra, et al. 2005, Nucleosides Nucleotides Nucleic Acids, 24:767-770) was purchased from Moraveck Biochemicals, Inc. (La Brea, Calif. USA). […] Ribavirin, nitazoxanide, tizoxanide and 2′-C-methyl cytidine were solubilized in 100% tissue culture grade DMSO (Sigma). […] Daily aliquots of test compounds were made from the stock solutions in individual tubes and stored at the appropriate temperatures. On each day of treatment, daily aliquots of the test compounds were suspended into culture medium at room temperature, and immediately added to the cell cultures, thereby subjecting each aliquot of test compound to the same, limited, number of freeze-thaw cycles.
To evaluate the effect of interferon alpha following pre-treatment with nitazoxanide or tizoxanide, a parental replicon-containing cell line (RP-7) was serially passaged in increasing concentrations of nitazoxanide or tizoxanide. Anti-HCV activity of interferon alpha-2b was determined using the parental cell line and using the cell lines obtained after passage in nitazoxanide or tizoxanide. Anti-HCV activity was determined by the methods described above.
(§4) The parental replicon-containing cell line was established by electroporation of RNA transcribed in vitro off of the Sca-I-linearized Bart 79I plasmid into Huh-7 cells (Elazar et al., 2003). Bart79I encodes for a second-generation high-efficiency bi-cistronic sub-genomic replicon of genotype 1b containing a single adaptive mutation (S1179I) in the NS5A gene, and the neomycinphosphotransferase gene in the first cistron. The electroporated cells were plated along with naïve Huh-7 feeder cells and grown in medium—DMEM (4.5 g/l glucose, L-glutamine and sodium pyruvate—Mediatech 10-013-CV), 10% fetal bovine serum, 1% Penicillin-streptomycin, 1% L-glutamine (final concentration 2 mM), 1×MEM Non-Essential Amino Acids (100×) (Invitrogen)—and 1 mg/ml G418. […] One of the resulting colonies was isolated, expanded, passaged in 700 μg/ml G418, and termed RP-7.

The test system of series [3] is HCV replication in JWT replicon cell line (subgenomic construct of genotype 1b). Briefly: microbe, parasite or virus in culture. Format: cell-based, hepatitis C virus. The protocol: as §1, §2, §3
Series [4] concerns HCV replication in five HCV genotype 1-derived replicon cell lines. The series is described as follows: Median over the five HCV replicon cell lines. In kind it is cell-based, hepatitis C virus. The following applies: median of the replicon cell lines; for EC50 / EC90: Hepatitis C virus. The procedure: as §1, §2
Series [5] in a line: Cytotoxicity, neutral red dye uptake, RP7. In kind it is cell-based. The following applies: human. The protocol:
(§5) Selectivity index=CC50 divided by EC50.
as §4

Series [6] is described as follows: Cytotoxicity, neutral red dye uptake, JWT. Format: cell-based. The following applies: human.
Description: as §5

The test system of series [7] is HCV replication in AVA5 replicon cell line (subgenomic construct of genotype 1b). The series is described as follows: microbe, parasite or virus in culture. The following applies: for S.I. = CC50/EC50: AVA5 cell cultures (Table 2). The procedure: as §1, §2, §3
Analyses of interactions between compounds used in combination treatments were performed using Calcusyn™ software (Biosoft, Cambridge, UK).

Series [8] concerns HCV replication in H/FL-Neo replicon cell line (genotype 1a full length construct). Briefly: microbe, parasite or virus in culture. Format: cell-based, hepatitis C virus. The procedure:
as §1, §2, §3

The subject of series [9] is HCV replication in 4-3-10 replicon cell line (subgenomic genotype 1b, JWT cells passaged in ribavirin). The series is described as follows: microbe, parasite or virus in culture. In kind it is cell-based, hepatitis C virus. The protocol: as §1, §2, §3
Series [10] can be described thus: Cytotoxicity, neutral red dye uptake, 4-3-10. The following applies: human. Format: cell-based.
Description: as §5

Another series deals with HCV replication. The series is described as follows: Effect of nitazoxanide pre-treatment and treatment duration (3 or 6 days) on antiviral activity in replicon cultures. In kind it is cell-based, hepatitis C virus. The following applies: for EC50 / EC90: Hepatitis C virus, expressed as NTZ concentration; for EC50: read-out: EC50, NTZ; for EC90: read-out: EC90, NTZ; for EC50, IFNα-2b / EC90, IFNα-2b: expressed as IFNα-2b concentration. The protocol:
as §2, with “Compounds were added daily for three days in fresh medium.” left out
Antiviral activity and cytotoxicity was determined 24 hours after the end of each respective treatment as described previously.

Series [11] can be described thus: Cytotoxicity, neutral red dye uptake, H/FL-Neo. In kind it is cell-based. The following applies: human.
Description: as §6
Series [12] has as its system HCV replication in RP7 cells passaged in nitazoxanide. The series is described as follows: HCV replicon antiviral assay, RP7 cells passaged in nitazoxanide. In kind it is cell-based, hepatitis C virus. The following applies: cell lines passaged in nitazoxanide or tizoxanide. The protocol:
as §2
To evaluate the effect of interferon alpha following pre-treatment with nitazoxanide or tizoxanide, a parental replicon-containing cell line (RP-7) was serially passaged in increasing concentrations of nitazoxanide or tizoxanide. Anti-HCV activity of interferon alpha-2b was determined using the parental cell line and using the cell lines obtained after passage in nitazoxanide or tizoxanide. Anti-HCV activity was determined by the methods described above. […]

Setting [13] is: Hepatitis C virus, read-out: EC50.
Setting [14] is: Hepatitis C virus, read-out: EC90.
Where [15] appears, read: AVA5 cell cultures, mono and combination treatments (Table 2).
The mark [16] stands for this setting: Hepatitis C virus, GETYPE1B, Ava5, AVA5 cell cultures, mono and combination treatments (Table 2).
The mark [17] stands for this setting: 4-3-10, interferon α-2b in IU/ml.
[18] abbreviates: AVA5 (Table 2), values for IFNα-2b expressed in IU/mL.

In general, CC50 refers to the concentration that lowers cell viability or growth by half. In the case of `NC(=O)c1ncn([C@@H]2O[C@H](CO)[C@@H](O)[C@H]2O)n1` [Ribavirin], the CC50 at 3 days in [1] (AVA5 HCV replicon cells) stood at 84000 ± 4700 nM; in series [5], 77000 ± 4900 nM; in [6], 89000 ± 7500 nM. Moreover, the “S.I. (Selectivity Index) = CC50/EC50” value in series [2] worked out at 1.2; in series [3] it was 3.9; in series [7] (AVA5), 1.2. Moreover, the EC50 in [2] (setting [13]) amounted to 69000 ± 4400 nM; in [3] (setting [13]), 23000 ± 2200 nM; in [4] it was 69000 nM; in [7] (Hepatitis C virus, Ava5, 72 h), 70000 ± 500 nM. The EC90 is 122000 ± 13000 nM in [2] (setting [14]); 62000 ± 1700 nM in series [3] (setting [14]); 122000 nM in series [4]; 220000 ± 34000 nM in series [7] (Hepatitis C virus, Ava5, AVA5).

Consider `CC(=O)Oc1ccccc1C(=O)Nc1ncc([N+](=O)[O-])s1` [Nitazoxanide, nitazoxanide], for which the CC50 at 3 days in series [1] (AVA5) is 39000 ± 3900 nM; in series [1] (setting [15]), 38000 ± 1800 nM; in [10], 34000 ± 400 nM; in [5], 38000 ± 800 nM; in [6] (JWT, read-out: CC50), 39000 ± 1000 nM; in [11], 49000 ± 1500 nM. Also, the “S.I. (Selectivity Index) = CC50/EC50” value in series [2] was determined as 238; in series [8], 149; in series [3], 354; in series [9] (4-3-10) it was 340; in series [7] (AVA5), 300. For the same compound, the EC50 in series [2] (setting [13]) worked out at 160 ± 10 nM; in series [8] (setting [13]), 330 ± 50 nM; in [3] (setting [13]), 110 ± 10 nM; in series [9] (Hepatitis C virus) it was 100 ± 30 nM; in [4], 130 nM; in series [7] (Hepatitis C virus, Ava5, 72 h) it was 130 ± 20 nM. Moreover, the EC50 in the series with HCV replication (72 h, duration 3 days) was found to be 220 ± 30 nM; in the series on HCV replication (144 h, duration 6 days), 200 ± 20 nM. Moreover, the EC90 turned out to be 1200 ± 100 nM in series [2] (setting [14]); 1100 ± 100 nM in series [8] (setting [14]); 1000 ± 200 nM in series [3] (setting [14]); 870 ± 160 nM in series [9] (Hepatitis C virus); 1000 nM in [4]; 1000 ± 200 nM in series [7] (Hepatitis C virus, Ava5, AVA5). The EC90 came to 930 ± 110 nM in series [7] (setting [16]); 1000 ± 100 nM in the series with HCV replication (72 h, duration 3 days); 920 ± 100 nM in the series on HCV replication (144 h, duration 6 days). Also, the “S.I. = CC50/EC50” value in series [7] turned out to be 181.

Consider Interferon α-2b, for which the “Resistance after serial passage of the parental cell line in nitazoxanide or tizoxanide” value in series [12] is “did not induce resistance”. For the same compound, the EC50 in [2] (interferon α-2b in IU/ml) stood at 0.41 ± 0.01 IU/ml; in series [8] (interferon α-2b in IU/ml), 2.1 ± 0.2 IU/ml; in [3] (interferon α-2b in IU/ml), 0.77 ± 0.03 IU/ml; in series [9] (setting [17]), 0.86 ± 0.06 IU/ml; in series [7] (setting [18]), 1.9 ± 0.22 IU/mL; in series [7] (AVA5, interferon α-2b in IU/ml), 1.5 ± 0.2 IU/ml. The EC90 in series [2] (interferon α-2b in IU/ml) came out at 3.6 ± 0.2 IU/ml; in series [8] (interferon α-2b in IU/ml) it was 9.4 ± 0.9 IU/ml; in series [3] (interferon α-2b in IU/ml), 2.6 ± 0.2 IU/ml; in series [9] (setting [17]), 5.7 ± 0.4 IU/ml; in series [7] (setting [18]), 8.9 ± 0.92 IU/mL; in [7] (AVA5, interferon α-2b in IU/ml), 8.2 ± 0.8 IU/ml. In series [4] (interferon α-2b), the “Median EC50” value was determined as 0.86 IU/ml. Besides, the “Median EC90” value in series [4] (interferon α-2b) worked out at 5.7 IU/ml. The “EC50, IFNα-2b” value in the series on HCV replication (duration 3 days) came to 1.9 ± 0.3 IU/mL; in the series on HCV replication (duration 6 days), 1.7 ± 0.2 IU/mL. In addition, the “EC90, IFNα-2b” value with HCV replication (duration 3 days) stood at 8.3 ± 0.9 IU/mL; with HCV replication (duration 6 days), 7.8 ± 0.8 IU/mL.

As for `O=C(Nc1ncc([N+](=O)[O-])s1)c1ccccc1O` [Tizoxanide, tizoxanide], the CC50 at 3 days came to 25000 ± 2800 nM in series [1] (AVA5); 15000 ± 1200 nM in series [1] (setting [15]); 21000 ± 1100 nM in series [10]; 25000 ± 1000 nM in series [5]; 24000 ± 2900 nM in series [6] (JWT, read-out: CC50); 4200 ± 200 nM in series [11]. The “S.I. (Selectivity Index) = CC50/EC50” value is given as 167 in series [2]; 17 in [8]; 150 in [3]; 191 in series [9] (4-3-10); 208 in [7] (AVA5). Besides, the EC50 was determined as 150 ± 10 nM in series [2] (setting [13]); 250 ± 30 nM in [8] (setting [13]); 160 ± 20 nM in [3] (setting [13]); 110 ± 50 nM in series [9] (Hepatitis C virus); 150 nM in [4]; 120 ± 10 nM in series [7] (Hepatitis C virus, Ava5, 72 h). Moreover, the EC90 in [2] (setting [14]) was found to be 940 ± 100 nM; in [8] (setting [14]) it was 1000 ± 100 nM; in series [3] (setting [14]), 760 ± 30 nM; in series [9] (Hepatitis C virus), 550 ± 80 nM; in series [4] it was 770 nM; in series [7] (Hepatitis C virus, Ava5, AVA5), 770 ± 100 nM. In addition, the EC90 in [7] (setting [16]) is 810 ± 920 nM. In addition, the “S.I. = CC50/EC50” value in series [7] was determined as 100.
